The record followed here is paper PMC2760094 (Journal of medicinal chemistry, 2009).

Usually IC50 stands for the point on the concentration scale where inhibition reaches its midpoint.

Series [1] concerns Melanoma (A 375, B16-F1) and Prostate Cancer Cells (DU145, PC-3, LNCaP, PPC-1). The series can be described thus: Antiproliferative activity over melanoma and prostate cancer cell lines. It counts as cell-based, human and mouse.
A further series in a line: Water solubility. It counts as physicochemical.
A short description of a further series: Cell cycle progression. Format: cell-based. As to conditions: unpublished data.
A further series has as its system LNCaP cells. As to the kind of experiment: SRB cytotoxicity assay, LNCaP prostate cancer. It counts as cell-based, human. Particulars: read-out: IC50 ± SEM (μM) LNCaP, Table 2, 96 h. Background: The SRB assay estimates cell density from bound dye.
The test system of another series is CCRF-CEM (Leukemia). As to the kind of experiment: NCI-60 human tumor cell line screen, CCRF-CEM. Format: cell-based. Particulars: read-out: IC50 NCI-60, CCRF-CEM, lowest of the NCI-60 range.
The subject of a further series is B16-F1 cells. As to the kind of experiment: SRB cytotoxicity assay, B16-F1 melanoma. Format: cell-based, mouse. As to conditions: read-out: IC50 ± SEM (μM) B16-F1, Table 2, 48 h.
A further series concerns A375 cells. The series can be described thus: SRB cytotoxicity assay, A375 melanoma. It counts as cell-based, human. As to conditions: read-out: IC50 ± SEM (μM) A375, Table 2, 48 h.
The subject of the next series is PPC-1 cells. As to the kind of experiment: SRB cytotoxicity assay, PPC-1 prostate cancer. Format: cell-based, human. Particulars: read-out: IC50 ± SEM (μM) PPC-1, Table 2, 96 h.
For a further series, the system named is DU 145 cells. As to the kind of experiment: SRB cytotoxicity assay, DU 145 prostate cancer. Format: cell-based, human. Particulars: read-out: IC50 ± SEM (μM) DU 145, Table 2, 96 h.

Consider `COC(=O)c1ccc(-c2nc(C(=O)c3cc(OC)c(OC)c(OC)c3)cs2)cc1` [8s, Methyl-4-[4-(3,4,5-trimethoxybenzoyl)-thiazol-2-yl]-benzoate], for which the “antiproliferative activity (in words)” value in [1] is listed as “total loss of potency”.

As to `COc1cc(C(=O)c2csc(-c3ccc([N+](=O)[O-])cc3)n2)cc(OC)c1OC` [8p, [2-(4-Nitrophenyl)-thiazol-4-yl]-(3,4,5-trimethoxyphenyl)-methanone], in [1], the “antiproliferative activity (in words)” value is “comparable antiproliferative activity”.

With `COc1cc(NC(=O)[C@@H]2CSC(c3ccccc3)N2)cc(OC)c1OC` (mixture of isomers) [2a, (2RS, 4R)-2-Phenyl-N-(3,4,5-trimethoxyphenyl)thiazolidine-4-carboxamide], the “antiproliferative activity (in words)” value in series [1] was “the potency against both cancer cell lines was lost”.

Turning to `COc1cc(NC(=O)[C@@H]2CSC(c3cc(OC)c(OC)c(OC)c3)N2)cc(OC)c1OC` (mixture of isomers) [2b, (2RS, 4R)-N,2-bis(3,4,5-trimethoxyphenyl)thiazolidine-4-carboxamide], the “antiproliferative activity (in words)” value in series [1] is given as “the potency against both cancer cell lines was lost”.

On to `O=C(c1cc(O)c(O)c(O)c1)c1csc(-c2ccccc2)n1` [compound 11, (2-Phenyl-thiazol-4-yl)-(3,4,5-trihydroxy-phenyl)-methanone], for which, in the series “Water solubility”, the “water solubility (in words)” value is listed as “water soluble”. In addition, the “antiproliferative activity (in words)” value in [1] is “complete loss of antiproliferative activity”.

On to `COc1cc(C(=O)c2csc(-c3ccccc3)n2)cc(OC)c1OC` [8f, (2-Phenyl-thiazol-4-yl)-(3,4,5-trimethoxy-phenyl)-methanone], for which the “cell cycle effect (in words)” value in “Cell cycle progression” is reported as “significant increase in G2/M phase arrest”.

Take `COc1cc(C(=O)c2csc(-c3ccc(C(=O)O)cc3)n2)cc(OC)c1OC` [8r, 4-[4-(3,4,5-Trimethoxybenzoyl)-thiazol-2-yl]-benzoic acid]: in series [1], the “antiproliferative activity (in words)” value is “total loss of the anti-cancer activity”.

As to `COc1cc(NC(=O)C2CSC(c3ccccc3)=N2)cc(OC)c1OC` (stereo in doubt) [4b, (4R)-2-Phenyl-N-(3,4,5-trimethoxyphenyl)-4,5-dihydrothiazole-4-carboxamide], the IC50 in [1] (read-out: IC50 over melanoma and prostate cancer cell lines) is 3400 to 38300 nM.

For `COc1cc(C(=O)c2cscn2)cc(OC)c1OC` [compound 10, Thiazol-4-yl-(3,4,5-trimethoxy-phenyl)-methanone], the “antiproliferative activity (in words)” value in series [1] was “total loss of activity”.

In the case of `COc1cc(C(=O)c2csc(-c3ccc(C#N)cc3)n2)cc(OC)c1OC` [8q, 4-[4-(3,4,5-Trimethoxybenzoyl)-thiazol-2-yl]-benzonitrile], the “antiproliferative activity (in words)” value in [1] is reported as “comparable antiproliferative activity”.

As to `COc1ccc(-c2nc(C(=O)c3cc(OC)c(OC)c(OC)c3)cs2)cc1OC` [8o, [2-(3,4-Dimethoxyphenyl)-thiazol-4-yl]-(3,4,5-trimethoxyphenyl)-methanone], the “antiproliferative activity (in words)” value in [1] is “comparable antiproliferative activity”.

For the compound `COc1cc(OC)cc(C(=O)c2csc(-c3ccccc3)n2)c1` [8g, (3,5-Dimethoxyphenyl)(2-phenylthiazol-4-yl)-methanone], the “fold lower average cytotoxicity than 8f” value in series [1] (against six different cell lines, relative to 8f) was determined as 6 fold.

In the case of `COc1cc(C(=O)c2csc(-c3ncccn3)n2)cc(OC)c1OC` [8y, [2-(Pyrimidin-2-yl)-thiazol-4-yl]-(3,4,5-trimethoxyphenyl)-methanone], in [1], the “antiproliferative activity (in words)” value is given as “kept partial activity against both cancer cells”.

On to `O=C(c1ccccn1)c1csc(-c2ccccc2)n1` [8i, (2-Phenylthiazol-4-yl)-(pyridin-2-yl)-methanone], for which the “antiproliferative activity (in words)” value in [1] is given as “total loss of the anti-cancer activity”.

For “(2RS, 4R)-2-phenyl-thiazolidine-4-carboxylic acid hexadecylamide [ATCAA-1]”, the IC50 is 1 ± 0.1 µM with LNCaP cells; 124 nM with CCRF-CEM (Leukemia); 2.2 ± 0.3 µM with B16-F1 cells; 2.1 ± 0.2 µM in the series with A375 cells; 0.4 ± 0.1 µM in the series on PPC-1 cells; 1.7 ± 0.1 µM in the series with DU 145 cells.

In the case of `COc1cc(C(=O)c2csc(-c3ccc(C(F)(F)F)cc3)n2)cc(OC)c1OC` [8t, (2-(4-(Trifluoromethyl)-phenyl)-thiazol-4-yl)(3,4,5-trimethoxyphenyl)-methanone], the “antiproliferative activity (in words)” value in [1] is “comparable antiproliferative activity”.

Consider `COc1ccccc1C(=O)c1csc(-c2ccccc2)n1` [8d, (2-Methoxyphenyl)(2-phenylthiazol-4-yl)-methanone], for which the “antiproliferative activity (in words)” value in series [1] is given as “weak activity against a certain cell lines”.

`COc1cc(NC(=O)c2csc(-c3ccccc3)n2)cc(OC)c1OC` [compound 5, 2-Phenyl-N-(3,4,5-trimethoxyphenyl)thiazole-4-carboxamide]: the “antiproliferative activity (in words)” value in [1] is “did not show any cytotoxicity against either cancer cell line tested”.
